# Test results as given in US9399626B2, “2-thiopyrimidinones” (Pfizer Inc., priority 2011, dated 2016).
# Where a name gives a salt, the structure may show the parent alone.
# Target: T1, MPO (purified from human polynuclear leukocytes) (Homo sapiens, UniProt P05164)
# T1 construct: purified from human polynuclear leukocytes; purchased Calbiochem/EMD Biosciences; host or cells: human polynuclear leukocytes (natural source)
# Assay: MPO Amplex Red Activity Assay
# Format: biochemical
# Settings: Table 1, 2 μM H2O2, pH 7.4
# Method: MPO Amplex Red Activity Assay.
# MPO peroxidase activity was measured by monitoring the formation of resorufin generated from the oxidation of Amplex Red (10-Acetyl-3,7-dihydroxyphenoxazine) (Invitrogen, Carlsbad, Calif.) by MPO (Gomes, Fernandes et al. 2005). Assay mixtures (100 μL total volume) contained 50 mM NaPi pH 7.4, 150 mM NaCl, 1 mM DTPA (diethylenetriaminepentaacetic acid), 2% DMSO, 2 μM H2O2, 30 μM Amplex Red and the reaction was initiated by the addition of […] (purified from human polynuclear leukocytes and purchased from Calbiochem/EMD Biosciences, Gibbstown, N.J.). All assays were performed in 96-well, half-area, black, nonbinding surface, polystyrene plates (Corning) and the production of resorufin (excitation 530 nm, emission 580 nm) was monitored every 20 sec on a Spectramax M2 Microplate Spectrophotometer (Molecular Devices, Palo Alto, Calif.) equipped with Softmax Pro software (Molecular Devices, Palo Alto, Calif.). Reactions to determine the background reaction rate consisted of all assay components and 4 μL of 500 unit/mL bovine catalase (Sigma) in 50 mM KPi pH 7.0. The background rate was subtracted from each reaction progress curve. All data was analyzed using non-linear regression analysis in Microsoft Excel and Kaleidagraph (Synergy Software).
# To determine inhibitor potency (kinact/KI) against MPO, the first 600 sec of the reaction progress curves were fit to equation 1, where Vo is the initial rate in RFU/sec and t is time in seconds, to obtain the first order rate constant for enzyme inactivation (kobs) at each inhibitor concentration.
# [formula] Equation 1 is a variation of the standard equation for slow binding inhibition where the steady state velocity (Vs) is set to zero. Each kobs value was corrected for auto-inactivation of the enzyme by subtracting the kobs value for the uninhibited reaction. The corrected kobs values were then plotted versus inhibitor concentration ([I]) and fit to equation 2
# [formula] where kinact is the maximal rate of inactivation and KI is the inhibitor concentration that yields half the rate of maximal inactivation (Copeland 2005).
# Table 1 and (1A) below provides the myeloperoxidase inhibitory activity for the Examples below in accordance with the above-described assay.
# T1 sequence (P05164 279-745 limits assumed): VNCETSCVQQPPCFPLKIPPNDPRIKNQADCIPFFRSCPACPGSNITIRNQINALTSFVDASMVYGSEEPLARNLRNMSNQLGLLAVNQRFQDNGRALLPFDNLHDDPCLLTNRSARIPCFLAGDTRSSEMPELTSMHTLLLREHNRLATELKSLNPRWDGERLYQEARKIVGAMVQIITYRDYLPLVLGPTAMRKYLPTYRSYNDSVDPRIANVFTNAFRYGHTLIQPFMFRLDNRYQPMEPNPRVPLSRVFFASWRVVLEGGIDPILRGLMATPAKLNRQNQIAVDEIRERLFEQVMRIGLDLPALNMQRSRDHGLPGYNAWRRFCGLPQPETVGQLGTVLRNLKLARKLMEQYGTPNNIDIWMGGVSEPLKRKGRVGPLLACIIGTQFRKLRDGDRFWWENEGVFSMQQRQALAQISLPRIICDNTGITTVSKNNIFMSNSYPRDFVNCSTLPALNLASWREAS
# T1 sequence (P05164 165-273 limits assumed): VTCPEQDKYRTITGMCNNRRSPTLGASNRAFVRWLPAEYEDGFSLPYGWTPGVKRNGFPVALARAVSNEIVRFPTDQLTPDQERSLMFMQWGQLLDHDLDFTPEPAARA
row,Compound,MPO kinact/Ki
1,"COCCn1c(-c2ccccc2OC(F)(F)F)cc(=O)[nH]c1=S [Example 118, 1-(2-methoxyethyl)-2-thioxo-6-[2-(trifluoromethoxy)phenyl]-2,3-dihydropyrimidin-4(1H)-one]",5500 1/s per M
2,"NC(=O)Cn1c(-c2csc3ccccc23)cc(=O)[nH]c1=S [Example 68, 2-[6-(1-benzothien-3-yl)-4-oxo-2-thioxo-3,4-dihydropyrimidin-1(2H)-yl]acetamide]",1160 1/s per M
3,"NCCCn1c(-c2cccc3ncsc23)cc(=O)[nH]c1=S [Example 72, 1-(3-aminopropyl)-6-(1,3-benzothiazol-7-yl)-2-thioxo-2,3-dihydropyrimidin-4(1H)-one trifluoroacetate]",3580 1/s per M
4,"COc1cc(F)ccc1-c1cc(=O)[nH]c(=S)n1CCCN [Example 57, 1-(3-aminopropyl)-6-(4-fluoro-2-methoxyphenyl)-2-thioxo-2,3-dihydropyrimidin-4(1H)-one hydrochloride]",13100 1/s per M
5,"COc1ccc(C)cc1-c1cc(=O)[nH]c(=S)n1CCCN [Example 43, 1-(3-aminopropyl)-6-(2-methoxy-5-methylphenyl)-2-thioxo-2,3-dihydropyrimidin-4(1H)-one hydrochloride]",34600 1/s per M
6,"NCCCn1c(-c2ccc3c(c2)CCO3)cc(=O)[nH]c1=S [Example 38, 1-(3-aminopropyl)-6-(2,3-dihydro-1-benzofuran-5-yl)-2-thioxo-2,3-dihydropyrimidin-4(1H)-one hydrochloride]",5240 1/s per M
7,"COCCn1c(-c2ccccc2OC)cc(=O)[nH]c1=S [Example 160, 1-(2-methoxyethyl)-6-(2-methoxyphenyl)-2-thioxo-2,3-dihydropyrimidin-4(1H)-one]",7540 1/s per M

# Now from value to molecule:
row,MPO kinact/Ki,Compound
1,3160 1/s per M,"COCCn1c(-c2ccc3c(c2)OCO3)cc(=O)[nH]c1=S [Example 309, 6-(1,3-benzodioxol-5-yl)-1-(2-methoxyethyl)-2-thioxo-2,3-dihydropyrimidin-4(1H)-one]"
2,589 1/s per M,"COCCn1c(-c2ccc(C(=O)N(C)C)cc2)cc(=O)[nH]c1=S [Example 336, 4-[3-(2-methoxyethyl)-6-oxo-2-thioxo-1,2,3,6-tetrahydropyrimidin-4-yl]-N,N-dimethylbenzamide]"
3,946 1/s per M,"COCCn1c(-c2ccc(OC)c3nc(C)ccc23)cc(=O)[nH]c1=S [Example 345, 1-(2-methoxyethyl)-6-(8-methoxy-2-methylquinolin-5-yl)-2-thioxo-2,3-dihydropyrimidin-4(1H)-one]"
4,3730 1/s per M,"COc1cccc(-c2cc(=O)[nH]c(=S)n2CCCN)c1 [Example 265, 1-(3-aminopropyl)-6-(3-methoxyphenyl)-2-thioxo-2,3-dihydropyrimidin-4(1H)-one hydrochloride]"
5,4730 1/s per M,"COCCn1c(-c2cc(OC)c(C)cc2OC)cc(=O)[nH]c1=S [Example 275, 6-(2,5-dimethoxy-4-methylphenyl)-1-(2-methoxyethyl)-2-thioxo-2,3-dihydropyrimidin-4(1H)-one]"

# Same assay, conditions: Table 1A, 2 μM H2O2, pH 7.4
row,MPO kinact/Ki,Compound
1,8770 1/s per M,"NC(=O)Cn1c(-c2cc(Cl)ccc2O)cc(=O)[nH]c1=S [Example 377, 2-[6-(5-chloro-2-hydroxyphenyl)-4-oxo-2-thioxo-3,4-dihydropyrimidin-1(2H)-yl]acetamide]"
2,4470 1/s per M,"COc1ccc(OCCO)c(-c2cc(=O)[nH]c(=S)n2CC(N)=O)c1 [Example 380, 2-{6-[2-(2-hydroxyethoxy)-5-methoxyphenyl]-4-oxo-2-thioxo-3,4-dihydropyrimidin-1(2H)-yl}acetamide]"
3,10900 1/s per M,"COc1ccc(-c2cc(=O)[nH]c(=S)n2CC(=O)NC[C@H](C)N)c(OC)c1 [Example 396, N-[(2S)-2-aminopropyl]-2-[6-(2,4-dimethoxyphenyl)-4-oxo-2-thioxo-3,4-dihydropyrimidin-1(2H)-yl]acetamide]"
